How the values were obtained:
[1] = test system: normal femoral bone marrow cells (CFU-C/GM); test: In vivo assessment of anticancer drug modulators: relative cell survival of normal femoral bone marrow cells in P388-bearing mice; conditions: for toxicity of cisplatinum to the marrow cells in the presence of modulator / protection of normal bone marrow cells (result in words): DBA/2J mice with P388, ip; for toxicity of cisplatinum to the marrow cells in the presence of modulator: cisplatinum 0.2 mg plus modulator, 48 h; for protection of normal bone marrow cells (result in words): with cisplatinum 0.2 mg, Histidinol 5 mg/injection or R-2HPA 0.38 ug/injection x5, 48 h after treatment, FIG. 2
Method: (§1) Seven groups of mice were treated and assessed in this model as follows:
(§2) P388 cells (1 million) were injected into the tail vein of 22 female DBA/2J mice (Protocol first developed in reference 6 and 8). The mice were then randomly divided into the above groups and injected (ip) with drugs 96 h later. Doses were cisplatinum 0.2 mg at 0 hour; Histidinol 5 mg/injection and R-2HPA 0.38 ug/injection; administered 5 times at −2, 0, +2, +4, and +6 hours. 48 h after drug treatment, cells from the femurs of the mice were harvested, washed and plated (at log10 dilutions) so as to allow quantitative and specific relative cell survival values to be generated for the responses of normal femoral bone marrow cells (specifically, CFU-C/GM or granulocyte/macrophage precursor cells) and clonogenic P388 leukemia cells (8).

[2] = test system: P388 leukemia cells; test: In vivo assessment of anticancer drug modulators: relative cell survival of clonogenic P388 leukemia cells in femurs of mice; conditions: DBA/2J mice; for increase of cisplatinum toxicity to the leukemia cells in the presence of modulator / enhanced killing by cisplatinum of P388 cells (result in words): ip, 48 h; for increase of cisplatinum toxicity to the leukemia cells in the presence of modulator: cisplatinum 0.2 mg plus modulator; for enhanced killing by cisplatinum of P388 cells (result in words): with cisplatinum 0.2 mg, Histidinol 5 mg/injection or R-2HPA 0.38 ug/injection x5, FIG. 3
Method: as §1, §2

[3] = test system: rat2 cells; test: In vitro clonogenic cell survival assay, modulation of cisplatinum toxicity in normal cells (RATIO method); format: cell-based, rat; conditions: with cisplatinum
Text: (§3) The protocol detailed below can be used for any normal/tumorigenic cell pair which will attach to plastic. Non-adherent lines (which includes most tumor cells, including NW16; consult references 5-10) require quantitation in soft agar. The present experiments are based on i) rat2 cells, a phenotypically normal, established rat fibroblast line and, ii) a tumorigenic derivative thereof, NW16 cells, which are rat2 cells transformed by a Fujinami sarcoma virus oncogene (see work of A. Pawson and P130^gag-fps). Rat2 and NW16 cells are maintained in a sub-confluent randomly-proliferating state in Dulbecco's modified minimal essential media with 10% (vol/vol) calf serum in plates incubated at 37° C. in a humidified CO2 (10%) incubator. All experiments reported rely on clonogenic cell survival assays (see references 4-6). Assays using rat2 (normal cells) were performed as follows: cells are exposed, in 10 cm culture dishes, to various drugs in media plus serum for varying lengths of time; seeding is at varying cell numbers, over log10 ranges, depending upon the degree of killing anticipated. [For the figure presented, incubation was for 72 hours prior to washing and assessment of clonogenic survival]. Both control and the experimental cultures are then gently washed, twice, with phosphate buffered saline, then once more with media minus serum, and then left in media plus serum, undisturbed until macroscopic colonies appear (7-9 days of incubation). The colonies are then fixed and stained with saturated methylene blue in 50% methanol and counted. The number of colonies, evaluated from 2 or more sets of duplicate cultures seeded at initial densities differing by factors of 10, are determined and converted to relative number of colonies, using the 0-hour control value as 1.0. Assays of NW16 cells were similar; however, because these cells are poorly adherent, following drug exposure, the washing procedure is modified, as is the quantitation of survivors step. In the latter case, quantitation requires plating the cells in soft agar (references 5-10).
A simplified presentation of the data, by the RATIO method, is show in FIG. 1. […] Ratios greater than unity indicate that the modulator has conferred a protective response, whereas ratios less than unity indicate an enhanced cell killing.

[4] = test system: NW16 cells; test: In vitro clonogenic cell survival assay in soft agar, modulation of cisplatinum toxicity in tumorigenic cells (RATIO method); format: cell-based, rat; conditions: for enhanced killing of tumor cells in the presence of cisplatinum (result in words): in vitro fibroblast model
Text: as §3, with “5-10). […]” for “5-10).”

Row | Molecule | toxicity of cisplatinum to the marrow cells in the presence of modulator [1] | protection of normal bone marrow cells (result in words) [1] | increase of cisplatinum toxicity to the leukemia cells in the presence of modulator [2] [fold] | enhanced killing by cisplatinum of P388 cells (result in words) [2] | protection of normal fibroblasts from cisplatinum (result in words) ([3]; FIG. 1) | enhanced killing of tumor cells in the presence of cisplatinum (result in words) [4] | further results
1 | N[C@H](CO)Cc1c[nH]cn1 [histidinol, L-histidinol, reference compound] | essentially eliminated | effective at protecting normal bone marrow cells | ~1000 | enhanced the killing by cisplatinum of P388 cells | exhibits similar properties | – | –
2 | C#CCN(C)[C@H](C)CCCCC [R-2HMP, R-2-heptyl-methylpropargylamine] | – | – | – | – | protect normal cells | enhance the killing of tumor cells | concentration at which the effect reverses to a protective effect in tumorigenic cells ([4]; NW16 tumorigenic cells, with cisplatinum, FIG. 1): ≥ 10^−9 M
3 | C#CCN(C)[C@@H](C)CCCCC [S-2HMP] | – | – | – | – | inactive | – | –
4 | N.N.[Cl][Pt][Cl] [cisplatinum] | – | – | – | – | – | – | effectiveness at killing normal marrow cells relative to intrafemoral leukemia cells, drug used alone ([1]; cisplatinum 0.2 mg ip alone, DBA/2J mice with P388, 48 h): about 100 times
5 | C#CCN[C@H](C)CCCCC [R-2HPA, R-2-heptyl-propargylamine] | essentially eliminated | effective at protecting normal bone marrow cells | ~1000 | enhanced the killing by cisplatinum of P388 cells | protect normal cells | enhance the killing of tumor cells | therapeutic index between protection of healthy normal cells and killing of cancerous cells ([2]; R-2HPA 0.38 ug dose with cisplatinum): about 50,000; protection of normal fibroblasts from cisplatinum (result in words) ([3]; FIG. 1, listed as R-2BPA): more potent
6 | R-deprenyl [reference compound] | – | – | – | – | less efficacious | – | –

— patent US6809120B1, “Composition containing propargylamine for enhancing cancer therapy” (University of Saskatchewan Technologies Inc., priority 1998, dated 2004)
